Experimental data published in publication PMC6104039 (Nature Communications, 2018).
“And” between values parts separate entries of the source, which are not always exact repeats. Identical values can stand only once.

Tested on: HEK293 cells
Experiment: Endogenous ceramide, HexCer and SM levels in cells treated 24 h, targeted LC-MS/MS
Format: cell-based
Conditions: 24 h
Protocol: Lipids were then extracted using MTBE/methanol/water as described above.
HEK293 cell culture experiment: Levels of each lipid in P053-treated HEK293 cells were normalised to the mean of the vehicle control group, and each concentration was compared to the control using ANOVA with Dunnett’s post-test. P values were adjusted for multiple comparisons in GraphPad PRISM.
Supplementary Figure 1. Ceramide, SM, and HexCer levels in HEK293 cells treated with
P053. Absolute lipid levels were determined by targeted LC-MS/MS, relative to external
standard curves. Results are mean ± SEM (n = 4) from one of two identical experiments.
Statistically significant results, based on two independent experiments, are as indicated in
Figure 2b-d. Raw data for these figures is provided in Supplementary Data File 1.

C[C@@](N)(CO)CCc1ccc(OCc2ccc(Cl)c(Cl)c2)cc1 [P053, (S)-2-amino-4-(4-(3,4-dichlorobenzyloxy)phenyl)-2-methylbutan-1-ol]
reduction of C18:0 ceramide (100 nM): 53% | C18 HexCer: selectively reduced | C18 SM: selectively reduced | C24:0 ceramide: minor increase | other forms of ceramide: No other forms of ceramide were reduced | 14:0 SM level (HEK293 cells, P053 10 nM): 86.4023 percentage of the vehicle control group and 87.5076 percentage of the vehicle control group and 111.4 percentage of the vehicle control group and 123.229 percentage of the vehicle control group and 107.24 percentage of the vehicle control group and 105.555 percentage of the vehicle control group and 105.116 percentage of the vehicle control group and 89.1667 percentage of the vehicle control group | 16:0 Cer level (HEK293 cells, P053 10 nM): 108.507 percentage of the vehicle control group and 85.9381 percentage of the vehicle control group and 87.0921 percentage of the vehicle control group and 116.695 percentage of the vehicle control group and 104.33 percentage of the vehicle control group and 104.933 percentage of the vehicle control group and 106.707 percentage of the vehicle control group and 101.056 percentage of the vehicle control group | 16:0 HexCer level (HEK293 cells, P053 10 nM): 83.0725 percentage of the vehicle control group and 87.9406 percentage of the vehicle control group and 128.577 percentage of the vehicle control group and 99.1213 percentage of the vehicle control group and 108.606 percentage of the vehicle control group and 107.974 percentage of the vehicle control group and 99.8354 percentage of the vehicle control group and 80.4305 percentage of the vehicle control group | 16:0 SM level (HEK293 cells, P053 10 nM): 90.9817 percentage of the vehicle control group and 95.8078 percentage of the vehicle control group and 105.689 percentage of the vehicle control group and 116.265 percentage of the vehicle control group and 95.5779 percentage of the vehicle control group and 88.0621 percentage of the vehicle control group and 88.5464 percentage of the vehicle control group and 91.6422 percentage of the vehicle control group | 16:1 SM level (HEK293 cells, P053 10 nM): 86.5462 percentage of the vehicle control group and 91.7143 percentage of the vehicle control group and 104.066 percentage of the vehicle control group and 119.449 percentage of the vehicle control group and 101.997 percentage of the vehicle control group and 91.4576 percentage of the vehicle control group and 97.8179 percentage of the vehicle control group and 89.4979 percentage of the vehicle control group | 18:0 Cer level (HEK293 cells, P053 10 nM): 75.1597 percentage of the vehicle control group and 77.1381 percentage of the vehicle control group and 83.1016 percentage of the vehicle control group and 101.889 percentage of the vehicle control group and 100.455 percentage of the vehicle control group and 110.825 percentage of the vehicle control group and 90.177 percentage of the vehicle control group and 106.32 percentage of the vehicle control group | 18:0 SM level (HEK293 cells, P053 10 nM): 87.3577 percentage of the vehicle control group and 90.1399 percentage of the vehicle control group and 117.324 percentage of the vehicle control group and 82.3337 percentage of the vehicle control group and 88.9916 percentage of the vehicle control group and 83.1732 percentage of the vehicle control group and 88.0529 percentage of the vehicle control group | 18:1 SM level (HEK293 cells, P053 10 nM): 90.5796 percentage of the vehicle control group and 93.2037 percentage of the vehicle control group and 88.8318 percentage of the vehicle control group and 108.011 percentage of the vehicle control group and 95.5914 percentage of the vehicle control group and 79.238 percentage of the vehicle control group and 78.9032 percentage of the vehicle control group and 84.4686 percentage of the vehicle control group | 22:0 Cer level (HEK293 cells, P053 10 nM): 104.639 percentage of the vehicle control group and 100.078 percentage of the vehicle control group and 73.3754 percentage of the vehicle control group and 101.613 percentage of the vehicle control group and 114.746 percentage of the vehicle control group and 118.068 percentage of the vehicle control group and 114.641 percentage of the vehicle control group and 113.437 percentage of the vehicle control group | 22:0 HexCer level (HEK293 cells, P053 10 nM): 98.6933 percentage of the vehicle control group and 87.3308 percentage of the vehicle control group and 106.948 percentage of the vehicle control group and 113.522 percentage of the vehicle control group and 107.776 percentage of the vehicle control group and 119.187 percentage of the vehicle control group and 120.197 percentage of the vehicle control group and 88.6877 percentage of the vehicle control group | 22:0 SM level (HEK293 cells, P053 10 nM): 77.9336 percentage of the vehicle control group and 82.0524 percentage of the vehicle control group and 72.1049 percentage of the vehicle control group and 117.359 percentage of the vehicle control group and 120.117 percentage of the vehicle control group and 100.918 percentage of the vehicle control group and 103.279 percentage of the vehicle control group and 105.704 percentage of the vehicle control group | 22:1 SM level (HEK293 cells, P053 10 nM): 103.42 percentage of the vehicle control group and 102.614 percentage of the vehicle control group and 99.3902 percentage of the vehicle control group and 105.25 percentage of the vehicle control group and 111.738 percentage of the vehicle control group and 105.36 percentage of the vehicle control group and 88.0812 percentage of the vehicle control group and 91.3619 percentage of the vehicle control group | 24:0 HexCer level (HEK293 cells, P053 10 nM): 87.0807 percentage of the vehicle control group and 93.0525 percentage of the vehicle control group and 81.1451 percentage of the vehicle control group and 103.31 percentage of the vehicle control group and 112.306 percentage of the vehicle control group and 129.078 percentage of the vehicle control group and 103.585 percentage of the vehicle control group and 92.4822 percentage of the vehicle control group | 24:0 SM level (HEK293 cells, P053 10 nM): 97.1928 percentage of the vehicle control group and 98.2718 percentage of the vehicle control group and 75.7857 percentage of the vehicle control group and 112.798 percentage of the vehicle control group and 112.334 percentage of the vehicle control group and 114.303 percentage of the vehicle control group and 127.22 percentage of the vehicle control group and 98.002 percentage of the vehicle control group | 24:1 Cer level (HEK293 cells, P053 10 nM): 105.077 percentage of the vehicle control group and 87.804 percentage of the vehicle control group and 67.6975 percentage of the vehicle control group and 121.49 percentage of the vehicle control group and 108.722 percentage of the vehicle control group and 121.479 percentage of the vehicle control group and 112.469 percentage of the vehicle control group and 111.695 percentage of the vehicle control group | 24:1 HexCer level (HEK293 cells, P053 10 nM): 100.2 percentage of the vehicle control group and 101.908 percentage of the vehicle control group and 107.061 percentage of the vehicle control group and 109.845 percentage of the vehicle control group and 113.174 percentage of the vehicle control group and 115.061 percentage of the vehicle control group and 107.49 percentage of the vehicle control group and 96.3768 percentage of the vehicle control group
